Source: patent US4937229A, “Pineapple ketone carbonate derivatives” (priority 1989, dated 1990)
Like-named read-outs stand apart in the source and are kept apart here.

Key:
physchem = details: toluene
Experimental: (§1) Solutions containing respectively 10 percent carbonate and ten percent pineapple ketone in toluene are stirred in loosely capped vials at ambient temperature. Samples are taken periodically and the concentration of carbonate or ketone remaining determined by GLC (6'×1/8", 15% Carbowax-20M on 80/100 Chromasorb W, Helium=28 cc/min, 100°-210° at 8°/min). The experiment is repeated using ethanol as solvent.

[1] = 0 min
Experimental: as §1

remaining at 21 h (physchem) [%]	remaining at 48 h (physchem) [%]	remaining at 72 h (physchem) [%]	remaining at 149 h (physchem) [%]	remaining at 172 h (physchem) [%]	% Remaining (0 min) [%]	% Remaining (toluene, 15 h) [%]	% Remaining (toluene, 41 h) [%]	% Remaining (toluene, 116 h) [%]	% Remaining (toluene, 138 h) [%]	% Remaining [1] [%]	remaining at 46 h (physchem) [%]	remaining at 69 h (physchem) [%]	remaining at 173 h (physchem) [%]	SMILES
100	58	30	8	9	100	24	18	6	4	100				CC1=C(O)C(=O)C(C)O1 (stereo not drawn) [Pineapple ketone, 2,5-dimethyl-4-hydroxy-3(2H)-furanone]
100			100		100					100	100	100	100	CCOC(=O)OC1=C(C)OC(C)C1=O (stereo not drawn) [Example 1, ETHYL 2,5-DIMETHYL-3-OXO-4(2H)-FURYL CARBONATE]
